Data: paper PMC10331583, “Control of fibrosis with enhanced safety via asymmetric inhibition of prolyl‐tRNA synthetase 1” (EMBO Molecular Medicine, 2023)
pIC50: −log10 of the molar value. “And” between values parts separate entries of the source, which are not always exact repeats. Equal entries are not always repeated. Where two headings read alike, the source gives them in different places.

Legend:
[1] = test system: WI‐26 VA4 cells; assay: Puromycin incorporation assay; format: cell-based, human; details: for activity at 0.01 µM: WI26VA4, 10 nM; for activity at 0.03 µM: WI26VA4, 30 nM; for activity at 3 µM: WI26VA4, 3000 nM; for activity at 10 µM: WI26VA4, 10000 nM
Description: After being rinsed with cold PBS twice, the cells were collected and resuspended in 200 μl of the carbonate bicarbonate buffer (Sigma Aldrich, C3041‐50CAP) with protease inhibitor. The cell lysates were obtained by sonication and centrifugation at 20,000 g for 15 min at 4°C. After protein quantification using a Pierce™ BCA Protein Assay Kit (Thermo Fisher Scientific, 23225), 400 ng of the proteins was coated to ELISA plates for 18 h at 4°C. […] The plates were rinsed with the washing buffer for three times after each antibody incubation step. […] The amount of puromycin incorporated in proteins was determined by measuring the absorbance at 450 nm (reference wavelength at 620 nm). Experimental values marked in red with strikethrough text in the Figure Source Data file were excluded from the analysis. These values were determined by considering the values of biological and technical replicates under the same condition, as well as the values at the former and later chemical concentrations.

[2] = test system: WI‐26 VA4 cells; assay: CellTiter‐Glo assay (cytotoxicity); details: Homo sapiens; for activity at 10 µM: WI26VA4, read-out: CellTiter-Glo % of control, 10000 nM; for activity at 30 µM: WI26VA4, read-out: CellTiter-Glo % of control, 30000 nM; for activity at 100 µM: WI26VA4, read-out: CellTiter-Glo % of control, 100000 nM
Description: After 24 h, the cells were incubated with various concentrations of compounds for 48 h. The level of ATP as a measure of cell viability was determined using a CellTiter‐Glo® luminescent cell viability assay kit (Promega, G7571) following the manufacturer's instructions.
WI‐26 VA4 cells were seeded at 1.2 × 10^4 cells/well in 96‐well white plates. After 24 h, the cells were incubated with the indicated concentrations of compounds for 72 h. The viability was determined as described above.

[3] = Homo sapiens, read-out: Puromycin, % of control, average
[4] = Homo sapiens, read-out: Puromycin, % of control, single replicate

O=C(C[C@H]1NCCC[C@@H]1O)Cn1cnc2ccc(-c3cccc(F)c3)cc21 [DWN11251]
Puromycin, % of control, single replicate ([1]; 10 nM, 0.01 µM): 101.25 % of control and 94.41 % of control and 100.93 % of control and 102.37 % of control and 93.16 % of control and 112.99 % of control and 111.09 % of control and 112.68 % of control
Puromycin, % of control, single replicate ([1]; 30 nM, 0.03 µM): 103.89 % of control and 102.07 % of control and 109.54 % of control and 108.35 % of control and 99.59 % of control and 116.49 % of control and 113.07 % of control and 114.50 % of control
Puromycin, % of control, single replicate ([1]; 100 nM, 0.1 µM): 103.01 % of control and 100.87 % of control and 101.28 % of control and 109.49 % of control and 107.49 % of control and 101.40 % of control and 114.53 % of control and 111.00 % of control and 121.31 % of control
Puromycin, % of control, single replicate ([1]; 300 nM, 0.3 µM): 88.40 % of control and 85.23 % of control and 87.58 % of control and 94.28 % of control and 93.99 % of control and 87.62 % of control and 94.72 % of control and 94.55 % of control and 109.57 % of control
Puromycin, % of control, single replicate ([1]; 1000 nM, 1 µM): 106.50 % of control and 101.49 % of control and 107.47 % of control and 104.76 % of control and 102.45 % of control and 95.18 % of control and 122.63 % of control and 109.16 % of control and 107.56 % of control
Puromycin, % of control, single replicate ([1]; 3000 nM, 3 µM): 61.69 % of control and 62.47 % of control and 62.84 % of control and 57.24 % of control
Puromycin, % of control, single replicate ([1]; 10000 nM, 10 µM): 19.53 % of control and 20.29 % of control and 21.78 % of control and 23.63 % of control and 20.64 % of control and 21.23 % of control and 21.73 % of control and 22.58 % of control
Puromycin, % of control, single replicate ([1]; 30000 nM, 30 µM): 0.45 % of control and 0.66 % of control and 0.0147 % of control and 1.69 % of control and 1.62 % of control and 0.33 % of control and 0.81 % of control and 1.20 % of control and -0.12 % of control
activity at 0.01 µM [1, 3]: 103%
activity at 0.01 µM [1, 4]: 99.1%
activity at 0.03 µM [1, 3]: 108%
activity at 0.03 µM [1, 4]: 108%
activity at 0.1 µM ([1]; Homo sapiens, WI26VA4, 100 nM, read-out: Puromycin, % of control, average): 108%
activity at 0.3 µM ([1]; Homo sapiens, WI26VA4, 300 nM, read-out: Puromycin, % of control, average): 92.9%
activity at 1 µM ([1]; Homo sapiens, WI26VA4, 1000 nM, read-out: Puromycin, % of control, average): 106%
activity at 3 µM [1, 3]: 60.8%
activity at 3 µM [1, 4]: 59.6%
activity at 10 µM [1, 3]: 21.3%
activity at 10 µM [1, 4]: 20.3%
activity at 30 µM ([1]; Homo sapiens, WI26VA4, 30000 nM, read-out: Puromycin, % of control, average): 0.74%
pIC50 ([1]; Homo sapiens, WI26VA4, log(inhibitor) vs. response, variable slope (four parameters), read-out: Puromycin, IC50 (best-fit value)): 5.37
Puromycin, HillSlope (best-fit value) ([1]; log(inhibitor) vs. response, variable slope (four parameters)): -1.784
Puromycin, LogIC50 (best-fit value) ([1]; log(inhibitor) vs. response, variable slope (four parameters), concentration in nM): 3.627
activity at 0.0001 µM ([2]; WI26VA4, read-out: CellTiter-Glo % of control, 0.1 nM, Experiment #1, replicates): 92.7%
activity at 0.0001 µM ([2]; WI26VA4, read-out: CellTiter-Glo % of control, 0.1 nM, Experiment #2, replicates): 120%
activity at 0.0003 µM ([2]; WI26VA4, read-out: CellTiter-Glo % of control, 0.3 nM, Experiment #1, replicates): 111%
activity at 0.0003 µM ([2]; WI26VA4, read-out: CellTiter-Glo % of control, 0.3 nM, Experiment #2, replicates): 121%
activity at 0.001 µM ([2]; WI26VA4, read-out: CellTiter-Glo % of control, 1 nM, Experiment #1, replicates): 105%
activity at 0.001 µM ([2]; WI26VA4, read-out: CellTiter-Glo % of control, 1 nM, Experiment #2, replicates): 107%
activity at 0.003 µM ([2]; WI26VA4, read-out: CellTiter-Glo % of control, 3 nM, Experiment #1, replicates): 122%
activity at 0.003 µM ([2]; WI26VA4, read-out: CellTiter-Glo % of control, 3 nM, Experiment #2, replicates): 111%
activity at 0.01 µM ([2]; WI26VA4, read-out: CellTiter-Glo % of control, 10 nM, Experiment #1, replicates): 100%
activity at 0.01 µM ([2]; WI26VA4, read-out: CellTiter-Glo % of control, 10 nM, Experiment #2, replicates): 121%
activity at 0.03 µM ([2]; WI26VA4, read-out: CellTiter-Glo % of control, 30 nM, Experiment #1, replicates): 108%
activity at 0.03 µM ([2]; WI26VA4, read-out: CellTiter-Glo % of control, 30 nM, Experiment #2, replicates): 124%
activity at 0.1 µM ([2]; WI26VA4, read-out: CellTiter-Glo % of control, 100 nM, Experiment #1, replicates): 112%
activity at 0.1 µM ([2]; WI26VA4, read-out: CellTiter-Glo % of control, 100 nM, Experiment #2, replicates): 126%
activity at 0.3 µM ([2]; WI26VA4, read-out: CellTiter-Glo % of control, 300 nM, Experiment #1, replicates): 98.2%
activity at 0.3 µM ([2]; WI26VA4, read-out: CellTiter-Glo % of control, 300 nM, Experiment #2, replicates): 105%
activity at 1 µM ([2]; WI26VA4, read-out: CellTiter-Glo % of control, 1000 nM, Experiment #1, replicates): 73.2%
activity at 1 µM ([2]; WI26VA4, read-out: CellTiter-Glo % of control, 1000 nM, Experiment #2, replicates): 76.4%
activity at 3 µM ([2]; WI26VA4, read-out: CellTiter-Glo % of control, 3000 nM, Experiment #1, replicates): 36.1%
activity at 3 µM ([2]; WI26VA4, read-out: CellTiter-Glo % of control, 3000 nM, Experiment #2, replicates): 46.1%
activity at 10 µM ([2]; Experiment #1, replicates): 26.6%
activity at 10 µM ([2]; Experiment #2, replicates): 30%
activity at 30 µM ([2]; Experiment #1, replicates): 12.4%
activity at 30 µM ([2]; Experiment #2, replicates): 11.9%
activity at 100 µM ([2]; Experiment #1, replicates): 1.59%
activity at 100 µM ([2]; Experiment #2, replicates): 0.95%
activity at 0.0001 µM ([2]; WI26VA4, read-out: CellTiter-Glo % of control, average, 0.1 nM, average): 110%
activity at 0.0003 µM ([2]; WI26VA4, read-out: CellTiter-Glo % of control, average, 0.3 nM, average): 116%
activity at 0.001 µM ([2]; WI26VA4, read-out: CellTiter-Glo % of control, average, 1 nM, average): 108%
activity at 0.003 µM ([2]; WI26VA4, read-out: CellTiter-Glo % of control, average, 3 nM, average): 112%
activity at 0.01 µM ([2]; WI26VA4, read-out: CellTiter-Glo % of control, average, 10 nM, average): 113%
activity at 0.03 µM ([2]; WI26VA4, read-out: CellTiter-Glo % of control, average, 30 nM, average): 119%
activity at 0.1 µM ([2]; WI26VA4, read-out: CellTiter-Glo % of control, average, 100 nM, average): 119%
activity at 0.3 µM ([2]; WI26VA4, read-out: CellTiter-Glo % of control, average, 300 nM, average): 101%
activity at 1 µM ([2]; WI26VA4, read-out: CellTiter-Glo % of control, average, 1000 nM, average): 76.7%
activity at 3 µM ([2]; WI26VA4, read-out: CellTiter-Glo % of control, average, 3000 nM, average): 41.3%
